Measured values: patent publication US8889677B2, “Substituted triazoles useful as mGlu5 receptor modulators” (Boehringer Ingellheim International GmbH, priority 2012, dated 2014)

Biological target: T1, human recombinant mGluR5 (Homo sapiens, UniProt P41594)
T1 construct: expressed in transfected cells; host or cells: HEK 293 cell line cultured with tetracycline, hygromycin and geneticin; tetracycline removed 3-7 days before the assay
Experiment: positive modulation of mGluR5, calcium based FLIPR assay in HEK 293 cells
Settings: HEK 293 cell line expressing human recombinant mGluR5; EC50 of the modulation of the glutamate response (glutamate approx. 5% basal stimulation); peak height of Ca release fluorescence signal
Method: The positive modulation of mGluR5 is measured in a HEK 293 cell line expressing human recombinant mGluR5 and is detected with calcium based FLIPR assay. The cells are cultured with DMEM supplemented with 10% FCS, 2 μg/mL tetracycline, 100 μg/mL hygromycin and 500 μg/mL gneticin. The cell culture media is exchanged for tetracycline-free cell culture media 3-7 days before the assay. One day before the assay the cell culture medium is exchanged to DMEM without glutamine and phenol red and supplemented with 10% FCS, 100 μg/mL hygromycin and 500 μg/mL geneticin. On the assay day, the medium of the subconfluent cultures is removed and the cells are detached by addition of 2.5 ml EDTA (0.02%) per 175 cm2 culture flask for 1 minute. The cells are resuspend in Ringer solution (140 mM NaCl, 5 mM KCl, 2.5 mM CaCl2, 1.5 mM MgCl2, 5 mM Glucose, 10 mM Hepes; adjusted to pH 7.4 with NaOH), pooled and Ringer solution added to adjust the volume to 50 mL. The cell suspension is centrifuged for […] at 1500 U/min (425 g). The supernatant is removed and the cells washed a second time with 50 ml fresh Ringer solution and centrifuged again as before. The supernatant is again removed and the pellet resuspended in Ringer solution to 1,000,000 cells/ml (1×10^6 cells/mL). The cells are plated onto BD BioCoat Poly-D-Lysine 384 well plates (20.000 cells/well; 20 μl/well). The lid covered plates are then incubated until use at 37° C./10% CO2. For dye loading, 20 μl of Calcium-4 assay kit solution (prepared according to the manufacturer's description in Ringer solution) are added to the cells and the plates are incubated for 80 min 37° C. and then 10 min at room temperature.
Controls, Compound Dilution and Assay Execution:
Each assay plate contained wells with “high” and “low” controls:
Low controls 1% DMSO/ringer solution+basal glutamate activation (defined as 100% CTL).
High controls 10 μM CDPPB+basal glutamate activation (defined as 200% CTL).
Test compounds are dissolved and diluted in DMSO to 100-fold the desired concentrations. In a second step, the compounds are diluted in Ringer solution such that the compounds are 4-fold more concentrated than the desired final assay concentration. The final DMSO concentration was 1%.
20 μl of each compound solution are then transferred to the assay plate and the Ca2+ kinetic is measured to determine any intrinsic compound activity. After 5 min incubation in the FLIPR device, the second stimulation with 20 μl of glutamate in Ringer solution (glutamate concentration adjusted to approximately 5% basal stimulation of the maximal possible glutamate effect) is added and the kinetic Ca2+ response of the wells was measured for the modulation effect.
The peak height of the Ca release related fluorescence signal (9-66) is used for the EC50. The EC50 of the modulation is calculated over a nonlinear regression with GraphPad Prism (Table 1).

T1 sequence (P41594 21-1212): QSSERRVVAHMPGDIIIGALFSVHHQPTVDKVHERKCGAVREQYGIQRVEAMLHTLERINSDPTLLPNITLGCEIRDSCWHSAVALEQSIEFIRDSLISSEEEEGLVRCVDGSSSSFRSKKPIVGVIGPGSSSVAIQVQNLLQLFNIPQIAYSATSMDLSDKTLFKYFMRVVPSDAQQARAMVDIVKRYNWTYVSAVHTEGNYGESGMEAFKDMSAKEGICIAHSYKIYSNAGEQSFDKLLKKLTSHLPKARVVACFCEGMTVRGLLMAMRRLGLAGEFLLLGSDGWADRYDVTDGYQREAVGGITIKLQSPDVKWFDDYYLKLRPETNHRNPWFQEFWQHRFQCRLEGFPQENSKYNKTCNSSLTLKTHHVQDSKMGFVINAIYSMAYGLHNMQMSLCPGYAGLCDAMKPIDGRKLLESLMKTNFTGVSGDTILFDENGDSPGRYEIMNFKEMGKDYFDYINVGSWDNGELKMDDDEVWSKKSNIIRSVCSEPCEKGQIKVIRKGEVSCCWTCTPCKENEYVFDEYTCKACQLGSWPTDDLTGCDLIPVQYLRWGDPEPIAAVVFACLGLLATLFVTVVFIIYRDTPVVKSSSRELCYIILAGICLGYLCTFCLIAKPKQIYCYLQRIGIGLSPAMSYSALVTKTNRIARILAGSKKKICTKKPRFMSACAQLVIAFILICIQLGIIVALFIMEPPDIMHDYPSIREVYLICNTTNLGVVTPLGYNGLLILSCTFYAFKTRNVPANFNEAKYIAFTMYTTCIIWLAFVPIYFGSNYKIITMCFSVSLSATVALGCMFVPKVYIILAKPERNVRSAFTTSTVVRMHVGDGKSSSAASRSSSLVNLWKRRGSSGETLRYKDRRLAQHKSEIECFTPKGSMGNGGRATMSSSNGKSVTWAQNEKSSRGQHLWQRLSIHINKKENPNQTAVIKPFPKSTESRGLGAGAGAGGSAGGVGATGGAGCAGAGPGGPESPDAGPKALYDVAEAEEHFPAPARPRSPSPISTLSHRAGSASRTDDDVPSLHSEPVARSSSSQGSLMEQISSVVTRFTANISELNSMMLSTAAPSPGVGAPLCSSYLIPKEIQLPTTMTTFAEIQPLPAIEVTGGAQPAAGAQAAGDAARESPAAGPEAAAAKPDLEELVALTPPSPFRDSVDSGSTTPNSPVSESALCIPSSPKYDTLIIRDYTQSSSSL

| Compound | EC50 [nM] |
| --- | --- |
| O=C(Cn1nc(-c2ccc(F)cc2)nc1C1CCCC1)N1CCN(c2ncccn2)CC1 [Example 07.04.046.] | 586 |
| O=C(Cn1nc(-c2ccc(F)cc2)nc1C1CCCC1)N1CCN(c2ccccn2)CC1 [Example 07.04.047.] | 1380 |
| Cc1ccnc(N2CCN(C(=O)Cn3nc(-c4ccc(F)cc4)nc3C3CCCC3)CC2)c1 [Example 07.04.048.] | 591 |
| COc1cccc(-c2nc(C3CCCCC3)n(CC(=O)N3CCN(c4ncccn4)CC3)n2)c1 [Example 07.04.051.] | 997 |
| COc1cccc(-c2nc(C3CCCCC3)n(CC(=O)N3CCN(c4cc(C)ccn4)CC3)n2)c1 [Example 07.04.052.] | 898 |
| COc1cccc(-c2nc(C3CCCCC3)n(CC(=O)N3CCN(c4ccccn4)CC3)n2)c1 [Example 07.04.053.] | 1150 |
| Cc1ccnc(N2CCN(C(=O)Cn3nc(-c4ccccc4)nc3-c3ccc(F)c(C)c3)CC2)c1 [Example 07.04.075.] | 657 |
| COc1cc(N2CCN(C(=O)Cn3nc(-c4ccc(F)cc4)nc3-c3ccc(F)c(OC)c3)CC2)ncn1 [Example 07.04.079.] | 1330 |
| CCCc1nc(-c2ccc(F)c(C)c2)nn1CC(=O)N1CCN(c2cc(OC)ncn2)CC1 [Example 07.04.080.] | 771 |
| CCCc1nc(-c2ccc(F)c(C)c2)nn1CC(=O)N1CCN(c2ncncn2)CC1 [Example 07.04.084.] | 1600 |
| COc1cc(N2CCN(C(=O)Cn3nc(-c4ccc(F)c(C)c4)nc3C(C)C)CC2)ncn1 [Example 07.04.086.] | 1170 |
| Cc1cc(-c2nc(C(C)C)n(CC(=O)N3CCN(c4ccccn4)CC3)n2)ccc1F [Example 07.04.087.] | 904 |
| COc1ccnc(N2CCN(C(=O)Cn3nc(-c4ccc(F)c(C)c4)nc3C(C)C)CC2)c1 [Example 07.04.088.] | 896 |
| Cc1ccnc(N2CCN(C(=O)Cn3nc(-c4ccc(F)c(C)c4)nc3C(C)C)CC2)c1 [Example 07.04.090.] | 1160 |
| CCc1nc(-c2ccc(F)c(C)c2)nn1CC(=O)N1CCN(c2ccccn2)CC1 [Example 07.04.091.] | 1090 |
| CCc1nc(-c2ccc(F)c(C)c2)nn1CC(=O)N1CCN(c2ncccn2)CC1 [Example 07.04.092.] | 654 |
| CCc1nc(-c2ccc(F)c(C)c2)nn1CC(=O)N1CCN(c2cc(OC)ncn2)CC1 [Example 07.04.093.] | 1730 |
| CCc1nc(-c2ccc(F)c(C)c2)nn1CC(=O)N1CCN(c2cc(OC)ccn2)CC1 [Example 07.04.094.] | 991 |
| Cc1cc(-c2nc(C)n(CC(=O)N3CCN(c4ccccn4)CC3)n2)ccc1F [Example 07.04.095.] | 1660 |
| COc1ccnc(N2CCN(C(=O)Cn3nc(-c4ccc(F)c(C)c4)nc3C)CC2)c1 [Example 07.04.096.] | 1520 |
| Cc1cc(-c2nc(C)n(CC(=O)N3CCN(c4ncccn4)CC3)n2)ccc1F [Example 07.04.097.] | 1190 |
| Cc1ccnc(N2CCN(C(=O)Cn3nc(-c4ccc(F)c(C)c4)nc3C)CC2)c1 [Example 07.04.098.] | 738 |
| CCC(C)c1nc(-c2ccc(F)c(C)c2)nn1CC(=O)N1CCN(c2cc(C)ccn2)CC1 (stereo not shown) [Example 07.04.099.] | 499 |
| CCC(C)c1nc(-c2ccc(F)c(C)c2)nn1CC(=O)N1CCN(c2cc(OC)ccn2)CC1 (stereo not shown) [Example 07.04.0100.] | 670 |
| CCC(C)c1nc(-c2ccc(F)c(C)c2)nn1CC(=O)N1CCN(c2ccccn2)CC1 (stereo not shown) [Example 07.04.102.] | 998 |
| CCC(C)c1nc(-c2ccc(F)c(C)c2)nn1CC(=O)N1CCN(c2cc(OC)ncn2)CC1 (stereo not shown) [Example 07.04.103.] | 748 |
| CCC(C)c1nc(-c2ccc(F)c(C)c2)nn1CC(=O)N1CCN(c2cccnn2)CC1 (stereo not shown) [Example 07.04.104.] | 1850 |

Next, values leading:

| EC50 [nM] | Compound |
| --- | --- |
| 37 | COc1cccc(-c2nc(-c3ccc(F)cc3)n(CC(=O)N3CCN(c4ccccn4)CC3)n2)c1 [Example 07.04.049.] |
| 459 | COc1cccc(-c2nc(-c3ccc(F)cc3)nn2CC(=O)N2CCN(c3ccccn3)CC2)c1 [Example 07.04.050.] |
| 100 | COc1ccc(-c2nc(-c3ccccc3)n(CC(=O)N3CCN(c4ccccn4)CC3)n2)cc1 [Example 07.04.054.] |
| 101 | CCOc1ccnc(N2CCN(C(=O)Cn3nc(-c4ccc(OC)cc4)nc3-c3ccccc3)CC2)c1 [Example 07.04.055.] |
| 64 | COc1ccc(-c2nc(-c3ccccc3)n(CC(=O)N3CCN(c4cc(OC)ccn4)CC3)n2)cc1 [Example 07.04.056.] |
| 75 | Cc1cc(-c2nc(-c3ccccc3)n(CC(=O)N3CCN(c4ncc(Br)cn4)CC3)n2)ccc1Br [Example 07.04.057.] |
| 25 | Cc1cc(-c2nc(-c3ccccc3)n(CC(=O)N3CCN(c4ncc(Cl)cn4)CC3)n2)ccc1F [Example 07.04.058.] |
| 160 | Cc1cc(-c2nc(-c3ccccc3)n(CC(=O)N3CCN(c4cccnn4)CC3)n2)ccc1F [Example 07.04.059.] |
| 55 | COc1cc(N2CCN(C(=O)Cn3nc(-c4ccc(F)c(C)c4)nc3-c3ccccc3)CC2)ncn1 [Example 07.04.060.] |
| 67 | Cc1cc(-c2nc(-c3ccccc3)n(CC(=O)N3CCN(c4ccccn4)CC3)n2)ccc1F [Example 07.04.061.] |
| 57 | Cc1ccnc(N2CCN(C(=O)Cn3nc(-c4ccc(F)c(C)c4)nc3-c3ccccc3)CC2)c1 [Example 07.04.062.] |
| 61 | COc1ccnc(N2CCN(C(=O)Cn3nc(-c4ccc(F)c(C)c4)nc3-c3ccccc3)CC2)c1 [Example 07.04.063.] |
| 192 | COc1cnnc(N2CCN(C(=O)Cn3nc(-c4ccc(F)c(C)c4)nc3-c3ccccc3)CC2)c1 [Example 07.04.064.] |
| 296 | COc1cc(N2CCN(C(=O)Cn3nc(-c4ccc(F)c(C)c4)nc3C3CCCCC3)CC2)ncn1 [Example 07.04.065.] |
| 101 | Cc1cc(-c2nc(C3CCCCC3)n(CC(=O)N3CCN(c4ncccn4)CC3)n2)ccc1F [Example 07.04.066.] |
| 207 | Cc1ccnc(N2CCN(C(=O)Cn3nc(-c4ccc(F)c(C)c4)nc3C3CCCCC3)CC2)c1 [Example 07.04.067.] |

| EC50 [nM] | Compound |
| --- | --- |
| 246 | COc1ccnc(N2CCN(C(=O)Cn3nc(-c4ccc(F)c(C)c4)nc3C3CCCCC3)CC2)c1 [Example 07.04.068.] |
| 229 | Cc1cc(-c2nc(C3CCCCC3)n(CC(=O)N3CCN(c4ncc(Cl)cn4)CC3)n2)ccc1F [Example 07.04.069.] |
| 318 | Cc1cc(-c2nc(C3CCCCC3)n(CC(=O)N3CCN(c4ncc(Br)cn4)CC3)n2)ccc1F [Example 07.04.070.] |
| 347 | Cc1cc(-c2nc(C3CCCCC3)n(CC(=O)N3CCN(c4ccccn4)CC3)n2)ccc1F [Example 07.04.071.] |
| 257 | Cc1cc(-c2nc(C3CCCCC3)n(CC(=O)N3CCN(c4cccnn4)CC3)n2)ccc1F [Example 07.04.072.] |
| 87 | Cc1cc(-c2nc(-c3ccccc3)nn2CC(=O)N2CCN(c3ncccn3)CC2)ccc1F [Example 07.04.073.] |
| 325 | COc1cc(N2CCN(C(=O)Cn3nc(-c4ccccc4)nc3-c3ccc(F)c(C)c3)CC2)ncn1 [Example 07.04.074.] |
| 220 | Cc1cc(-c2nc(-c3ccccc3)nn2CC(=O)N2CCN(c3ccccn3)CC2)ccc1F [Example 07.04.076.] |
| 244 | COc1cc(-c2nc(-c3ccc(F)cc3)nn2CC(=O)N2CCN(c3ncccn3)CC2)ccc1F [Example 07.04.077.] |
| 353 | CCCc1nc(-c2ccc(F)c(C)c2)nn1CC(=O)N1CCN(c2cc(OC)ccn2)CC1 [Example 07.04.081.] |
| 306 | CCCc1nc(-c2ccc(F)c(C)c2)nn1CC(=O)N1CCN(c2cc(C)ccn2)CC1 [Example 07.04.082.] |
| 497 | CCCc1nc(-c2ccc(F)c(C)c2)nn1CC(=O)N1CCN(c2ccccn2)CC1 [Example 07.04.083.] |
| 379 | CCCc1nc(-c2ccc(F)c(C)c2)nn1CC(=O)N1CCN(c2ncccn2)CC1 [Example 07.04.085.] |
| 340 | Cc1cc(-c2nc(C(C)C)n(CC(=O)N3CCN(c4ncccn4)CC3)n2)ccc1F [Example 07.04.089.] |
| 294 | CCC(C)c1nc(-c2ccc(F)c(C)c2)nn1CC(=O)N1CCN(c2ncccn2)CC1 (stereo not shown) [Example 07.04.101.] |
